Experiments:
[1] = Release of drugs from paper disk dosage forms in vitro (continuous elution by water, spectrophotometry); type: physicochemical; conditions: first milliliters of eluent
Protocol: To prepare the dosage form, cyclodextrin was dissolved in water (50% solutions for HPBCD, 20% for gamma-cyclodextrin and sulfopropyl beta-cyclodextrin), or aqueous ethanol for HPBCD (50% solution). This solution was saturated with drug by intensive stirring for two hours. The suspension was then filtered and then spotted on paper or filtration cloth and air dried.
Paper disks of 2 cm diameter and carrying drug: cyclodextrin inclusion complexes in the amounts specified in Table 1 below were continuously eluted by water and the amount of drug eluted was measured by spectrophotometry. For progesterone, a wavelength of 240 nm was used. Data had to be corrected since paper contains a minor component which elutes rapidly and absorbs at this wavelength. Prewashing of paper removes this complication. Amphotericin B content was analyzed using wavelength 410 nm and data previously published (M. Kajtar et al., Biopolymers, 28, 1585-1596, 1989).

[2] = as above; type: physicochemical; conditions: eluted disks dried and eluted by methanol (50 ml) overnight
[3] = Release of cyclodextrin and drug from paper disk dosage forms in vivo (kept under the tongue, residue extracted); conditions: for Progesterone left in disk, % of the originally present progesterone: progesterone:HPBCD paper disk, non-released disk = 100%
Protocol: Paper disks of 2 cm diameter containing only HPBCD were kept under the tongue for 3 to 4 minutes and dried after retrieval. The disks were then extracted by water (50 ml) overnight and soluble carbohydrates in the extracts measured using anthrone reagent (Methods in Carbohydrate Chemistry, Volume 1, page 523, wavelength used 620 nm). HPBCD is reactive toward this reagent. The control paper disk with HPBCD, but not released under the tongue, registered 100 units (arbitrary scale); the empty paper disk registered 1.8 units; disks loaded with HPBCD and released for 3 to 4 minutes under the tongue, 1.6 units.
Paper disks carrying progesterone:HPBCD combination, prepared as in Example 2 were kept under the tongue and, after retrieval, dried and extracted by water (50 ml) overnight. Progesterone in the extracts was measured by spectrophotometry using methods and precautions as in Example 2. When progesterone extracted from the original disks (i.e., not released under tongue) is taken as 100%, disks which were released for 5 minutes under the tongue yielded 3.8% of the originally present progesterone, and disks released for 10 minutes, 3.2%. Several minutes under the tongue thus releases nearly all drug into the oral cavity.

Row | Compound | Completeness of release of drug by water from cyclodextrin paper disks [1] | Additional drug release from eluted, dried disks by methanol [2] | Time for release of HPBCD into mouth ([3]; paper disk under the tongue) | Progesterone left in disk, % of the originally present progesterone ([3]; released 5 minutes under the tongue) [%] | Progesterone left in disk, % of the originally present progesterone ([3]; released 10 minutes under the tongue) [%]
1 | C[C@@H]1[C@H](O)[C@@H](C)/C=C/C=C/C=C/C=C/C=C/C=C/C=C/[C@H](O[C@@H]2O[C@H](C)[C@@H](O)[C@H](N)[C@@H]2O)C[C@@H]2O[C@](O)(C[C@@H](O)C[C@@H](O)[C@H](O)CC[C@@H](O)C[C@@H](O)CC(=O)O[C@H]1C)C[C@H](O)[C@H]2C(=O)O [Amphotericin B] | only partial | further drug was release |  |  | 
2 | CC(O)COC[C@H]1O[C@@H]2O[C@H]3[C@H](O)[C@@H](O)[C@@H](O[C@H]4[C@H](O)[C@@H](O)[C@@H](O[C@H]5[C@H](O)[C@@H](O)[C@@H](O[C@H]6[C@H](O)[C@@H](O)[C@@H](O[C@H]7[C@H](O)[C@@H](O)[C@@H](O[C@H]8[C@H](O)[C@@H](O)[C@@H](O[C@H]1[C@H](O)[C@H]2O)O[C@@H]8COCC(C)O)O[C@@H]7COCC(C)O)O[C@@H]6COCC(C)O)O[C@@H]5COCC(C)O)O[C@@H]4COCC(C)O)O[C@@H]3COCC(C)O (stereo partly drawn) [HPBCD, hydroxypropyl beta-cyclodextrin] |  |  | completed within a few minutes |  | 
3 | CC(=O)[C@H]1CC[C@H]2[C@@H]3CCC4=CC(=O)CC[C@]4(C)[C@H]3CC[C@]12C [Progesterone] | complete | No additional release was observed |  | 3.8 | 3.2
